From ChEMBL document CHEMBL1157992, “Alvaradoins A-D. Anthracenone C arabinosides from alvaradoa jamaicensis” (J Nat Prod, 1999)
Active and inactive are the calls of the source. The calls are words filed in the database; no cut-off is given here.

Test system: Mycobacterium tuberculosis
Assay: Antituberculosis activity against Mycobacterium tuberculosis at 12.5 ug/mL
Assay type: functional, organism-based

Compound	Activity
COc1cc(O)c2c(c1)[C@@H]([C@H]1OC[C@H](OC(C)=O)[C@H](OC(=O)C=C(C)C)[C@H]1O)c1cc(C)cc(O)c1C2=O	inactive
COc1cc(O)c2c(c1)[C@@](O)([C@H]1OC[C@H](OC(C)=O)[C@H](OC(=O)C=C(C)C)[C@H]1O)c1cc(C)cc(O)c1C2=O	inactive
COc1cc(O)c2c(c1)[C@H]([C@H]1OC[C@H](OC(C)=O)[C@H](OC(=O)C=C(C)C)[C@H]1O)c1cc(C)cc(O)c1C2=O	inactive
COc1cc(O)c2c(c1)[C@](O)([C@H]1OC[C@H](OC(C)=O)[C@H](OC(=O)C=C(C)C)[C@H]1O)c1cc(C)cc(O)c1C2=O	inactive
Cc1cc(O)c2c(c1)C(=O)c1cccc(O)c1C2=O	inactive
COc1cc(O)c2c(c1)C(=O)c1cc(C)cc(O)c1C2=O	inactive
